pIC50: −log10 of the molar value. Where a name gives a salt, the structure may show the parent alone.
Target: T1, human HPK1 (MAP4K1) (Homo sapiens, UniProt Q92918)
T1 construct: Recombinant human HPK1 kinase domain was obtained from ThermoFisher (Cat. #PV6357) and SignalChem (Cat. #M23-11G); purchased ThermoFisher; SignalChem PV6357; M23-11G
T1 sequence (Q92918 17-274 limits assumed): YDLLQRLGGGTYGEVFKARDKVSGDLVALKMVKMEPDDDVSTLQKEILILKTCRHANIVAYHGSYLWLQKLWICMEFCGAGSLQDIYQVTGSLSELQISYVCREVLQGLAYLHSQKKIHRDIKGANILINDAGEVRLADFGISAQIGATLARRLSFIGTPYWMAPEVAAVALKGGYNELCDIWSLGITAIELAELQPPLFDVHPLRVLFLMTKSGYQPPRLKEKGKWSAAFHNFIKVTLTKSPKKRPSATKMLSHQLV
Experiment: Biochemical assay for activity against HPK1 (ADP-Glo, MBP substrate)
Details: recombinant human HPK1 kinase domain, 1 nM enzyme, ADP-Glo luminescence
In short: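 IC50s come from ADP-Glo luminescence after a 2 h room-temperature reaction phosphorylating MBP in the presence of ATP. Compound was first preincubated 15 min with 1 nM HPK1 kinase domain, human recombinant. Buffer: 50 mM HEPES pH 7.5, 150 mM NaCl, 3 mM TCEP, 10 mM MgCl2, 0.005% Tween-20, 0.01% BSA.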

pIC50 | Structure (SMILES)
> 7.00 | COc1cc2c(cc1Nc1ncc3cnn([C@H]4CCC[C@H](C(=O)O)C4)c3n1)CN(C)CC2 (racemic) [Example 28, rac-(1S,3S)-3-(6-((6-methoxy-2-methyl-1,2,3,4-tetrahydroisoquinolin-7-yl)amino)-1H-pyrazolo[3,4-d]pyrimidin-1-yl)cyclohexane-1-carboxylic acid]
> 7.00 | COc1cc2c(cc1Nc1ncc3cnn([C@@H]4C[C@@H]5C[C@H]4N(C(C)=O)C5)c3n1)CN(C)CC2 (relative stereo) [Example 193, rel-1-((1R,4S,6R)-6-(6-((6-methoxy-2-methyl-1,2,3,4-tetrahydroisoquinolin-7-yl)amino)-1H-pyrazolo[3,4-d]pyrimidin-1-yl]-2-azabicyclo[2.2.1]heptan-2-yl)ethan-1-one]
> 7.00 | COc1cc2c(cc1Nc1ncc3cnn(C[C@@H]4COCCN4C(C)=O)c3n1)CN(C)CC2 [Example 129, (R)-1-(3-((6-((6-methoxy-2-methyl-1,2,3,4-tetrahydroisoquinolin-7-yl)amino)-1H-pyrazolo[3,4-d]pyrimidin-1-yl)methyl)morpholino)ethan-1-one trifluoroacetate]
> 7.00 | COc1cc2c(cc1Nc1ncc3cnn([C@H]4C[C@](C)(C(=O)O)C4)c3n1)CN(C)CC2 [Example 71, 3-[6-[(6-methoxy-2-methyl-3,4-dihydro-1H-isoquinolin-7-yl)amino]pyrazolo[3,4-d]pyrimidin-1-yl]-1-methyl-cyclobutanecarboxylic acid]
< 6.60 | COc1cc2c(cc1Nc1ncc3cnn(C4CCC(C)(CO)CC4)c3n1)CN(C)CC2 (mixture of isomers) [Example 75, [4-[6-[(6-methoxy-2-methyl-3,4-dihydro-1H-isoquinolin-7-yl)amino]pyrazolo[3,4-d]pyrimidin-1-yl]-1-methyl-cyclohexyl]methanol]
> 7.00 | COc1cc2c(cc1Nc1ncc3cnn(C[C@H]4CN(S(C)(=O)=O)CCO4)c3n1)CN(C)CC2 [Example 128, (S)-6-methoxy-2-methyl-N-(1-((4-(methylsulfonyl)morpholin-2-yl)methyl)-1H-pyrazolo[3,4-d]pyrimidin-6-yl)-1,2,3,4-tetrahydroisoquinolin-7-amine trifluoroacetate]
> 7.00 | COc1cc2c(cc1Nc1ncc3cnn([C@H]4CC[C@H](OC)CC4)c3n1)CN(C)CC2 [Example 47, 6-methoxy-N-(1-(trans-4-methoxycyclohexyl)-1H-pyrazolo[3,4-d]pyrimidin-6-yl)-2-methyl-1,2,3,4-tetrahydroisoquinolin-7-amine]
> 7.00 | COc1cc2c(cc1Nc1ncc3cnn([C@H]4CC[C@H](CO)CC4)c3n1)CN(CCO)CC2 [Example 167, 2-[7-[[1-[4-(hydroxymethyl)cyclohexyl]pyrazolo[3,4-d]pyrimidin-6-yl]amino]-6-methoxy-3,4-dihydro-1H-isoquinolin-2-yl]ethanol]
> 7.00 | COc1cc2c(cc1Nc1ncc3cnn([C@H]4CC[C@H](O)CC4)c3n1)CN(CCO)CC2 [Example 156, trans-4-(6-((2-(2-hydroxyethyl)-6-methoxy-1,2,3,4-tetrahydroisoquinolin-7-yl)amino)-1H-pyrazolo[3,4-d]pyrimidin-1-yl)cyclohexan-1-ol]
> 7.00 | COc1cc2c(cc1Nc1ncc3cnn([C@H]4CC[C@@H](C(=O)N(C)C)CC4)c3n1)CN(C)CC2 [Example 54, (1s,4s)-4-(6-((6-methoxy-2-methyl-1,2,3,4-tetrahydroisoquinolin-7-yl)amino)-1H-pyrazolo[3,4-d]pyrimidin-1-yl)-N,N-dimethylcyclohexane-1-carboxamide]
> 7.00 | COc1cc2c(cc1Nc1ncc3cnn([C@H]4CC[C@H](CO)C4)c3n1)CN(C)CC2 (racemic) [Example 48, rac-(trans-3-(6-((6-methoxy-2-methyl-1,2,3,4-tetrahydroisoquinolin-7-yl)amino)-1H-pyrazolo[3,4-d]pyrimidin-1-yl)cyclopentyl)methanol]
> 7.00 | CNC(=O)[C@H]1CC[C@H](n2ncc3cnc(Nc4cc5c(cc4OC)CCN(C)C5)nc32)C1 (racemic) [Example 43, rac-(1S,3S)-3-(6-((6-methoxy-2-methyl-1,2,3,4-tetrahydroisoquinolin-7-yl)amino)-1H-pyrazolo[3,4-d]pyrimidin-1-yl)-N-methylcyclopentane-1-carboxamide]
> 7.00 | COc1cc2c(cc1Nc1ncc3cnn([C@@H]4CCC[C@H](CO)C4)c3n1)CN(C)CC2 (relative stereo) [Example 22, cis-3-(6-((6-methoxy-2-methyl-1,2,3,4-tetrahydroisoquinolin-7-yl)amino)-1H-pyrazolo[3,4-d]pyrimidin-1-ylcyclohexyl)methanol]
> 7.00 | COc1cc2c(cc1Nc1ncc3cnn(CC[C@@H](C)O)c3n1)CN(C)CC2 [Example 83, (2R)-4-[6-[(6-methoxy-2-methyl-3,4-dihydro-1H-isoquinolin-7-yl)amino]pyrazolo[3,4-d]pyrimidin-1-yl]butan-2-ol]
6.60 to 7.00 | COc1cc2c(cc1Nc1ncc3c(C)nn(C[C@@H]4CCCN4S(C)(=O)=O)c3n1)CN(C)CC2 [Example 116, (S)-6-methoxy-2-methyl-N-(3-methyl-1-((1-(methylsulfonyl)pyrrolidin-2-yl)methyl)-1H-pyrazolo[3,4-d]pyrimidin-6-yl)-1,2,3,4-tetrahydroisoquinolin-7-amine]
> 7.00 | COc1cc2c(cc1Nc1ncc3cnn(C[C@@H]4CCCN(S(C)(=O)=O)C4)c3n1)CN(C)CC2 [Example 141, 6-methoxy-2-methyl-N-[1-[[(3S)-1-methylsulfonyl-3-piperidyl]methyl]pyrazolo[3,4-d]pyrimidin-6-yl]-3,4-dihydro-1H-isoquinolin-7-amine]
> 7.00 | COc1cc2c(cc1Nc1ncc3cnn(C[C@@H]4CCCN4C(=O)CO)c3n1)CN(C)CC2 [Example 114, (S)-2-hydroxy-1-(2-((6-((6-methoxy-2-methyl-1,2,3,4-tetrahydroisoquinolin-7-yl)amino)-1H-pyrazolo[3,4-d]pyrimidin-1-yl)methyl)230yrrolidine-1-yl)ethan-1-one 2,2,2-trifluoroacetate]
> 7.00 | COc1cc2c(cc1Nc1ncc3cnn(C[C@@H]4CCCN4C(C)=O)c3n1)CN(C(C)C)CC2 [Example 196, (S)-1-(2-((6-((2-isopropyl-6-methoxy-1,2,3,4-tetrahydroisoquinolin-7-yl)amino)-1H-pyrazolo[3,4-d]pyrimidin-1-yl)methyl)pyrrolidin-1-yl)ethan-1-one hydrochloride]
> 7.00 | COc1cc2c(cc1Nc1ncc3cnn(C[C@@H]4CCCC[C@@H]4CO)c3n1)CN(C)CC2 (racemic) [Example 166, [rac-cis-2-[[6-[(6-methoxy-2-methyl-3,4-dihydro-1H-isoquinolin-7-yl)amino]pyrazolo[3,4-d]pyrimidin-1-yl]methyl]cyclohexyl]methanol]
> 7.00 | CNC(=O)[C@]1(C)C[C@@H](n2ncc3cnc(Nc4cc5c(cc4OC)CCN(C)C5)nc32)C1 [Example 73, trans-3-[6-[(6-methoxy-2-methyl-3,4-dihydro-1H-isoquinolin-7-yl)amino]pyrazolo[3,4-d]pyrimidin-1-yl]-N,1-methyl-cyclobutanecarboxamide]
> 7.00 | COc1cc2c(cc1Nc1ncc3cnn(C[C@@H]4C[C@@H]4C(=O)O)c3n1)CN(C)CC2 (racemic) [Example 188, (cis)-2-((6-((6-methoxy-2-methyl-1,2,3,4-tetrahydroisoquinolin-7-yl)amino)-1H-pyrazolo[3,4-d]pyrimidin-1-yl)methyl)cyclopropane-1-carboxylic Acid]
> 7.00 | COc1cc2c(cc1Nc1ncc3cnn(C[C@@H]4CC[C@@H](O)CN4C(C)=O)c3n1)CN(C)CC2 [Example 225, 1-((2S,5R)-5-hydroxy-2-((6-((6-methoxy-2-methyl-1,2,3,4-tetrahydroisoquinolin-7-yl)amino)-1H-pyrazolo[3,4-d]pyrimidin-1-yl)methyl)piperidin-1-yl)ethan-1-one]
> 7.00 | COC(=O)N[C@@H](C)Cn1ncc2cnc(Nc3cc4c(cc3OC)CCN(C)C4)nc21 [Example 95, methyl N-[(1S)-2-[6-[(6-methoxy-2-methyl-3,4-dihydro-1H-isoquinolin-7-yl)amino]pyrazolo[3,4-d]pyrimidin-1-yl]-1-methyl-ethyl]carbamate]
> 7.00 | COc1cc2c(cc1Nc1ncc3cnn(C[C@@H]4CCC[C@H]4CO)c3n1)CN(C)CC2 (racemic) [Example 160, Rac-trans-2-[[6-[(6-methoxy-2-methyl-3,4-dihydro-1H-isoquinolin-7-yl)amino]pyrazolo[3,4-d]pyrimidin-1-yl]methyl]cyclopentyl]methanol]
6.60 to 7.00 | COc1cc2c(cc1Nc1ncc3cnn(CCN(C)C(C)=O)c3n1)CN(C)CC2 [Example 91, N-[2-[6-[(6-methoxy-2-methyl-3,4-dihydro-1H-isoquinolin-7-yl)amino]pyrazolo[3,4-d]pyrimidin-1-yl]ethyl]-N-methyl-acetamide]
> 7.00 | COc1cc2c(cc1Nc1ncc3cnn(CC4CCCCO4)c3n1)CN(C)CC2 (racemic) [Example 201, (S)-6-methoxy-2-methyl-N-(1-((tetrahydro-2H-pyran-2-yl)methyl)-1H-pyrazolo[3,4-d]pyrimidin-6-yl)-1,2,3,4-tetrahydroisoquinolin-7-amine and (R)-6-methoxy-2-methyl-N-(1-((tetrahydro-2H-pyran-2-ylmethyl)-1H-pyrazolo[3,4-d]pyrimidin-6-yl)-1,2,3,4-tetrahydroisoquinolin-7-amine Hydrochloride, Racemic Mixture]

— patent US11918582B2 (RAPT Therapeutics, Inc., priority 2021, dated 2024)
